From patent US11260012B2, “Preserved silk protein fragment compositions and articles manufactured therefrom” (Evolved By Nature, Inc., priority 2015, dated 2022)
Blank lines part the entries; values can stand above or below the compound they belong to.

How the values were obtained:
[1] = Gel formation with vitamin C derivatives; assay type: physicochemical; details: for time to gel formation: 100 mg vitamin C derivative in 15 mL of 2% silk solution
Protocol: The Tables in FIGS. 89A-89B summarize embodiments of gels of the present disclosure. Ascorbic acid-2-glucoside was the most successful vitamin C derivative at gel formation with gel being formed in a 2% silk solution in 3 days. […] In all cases 100 mg of vitamin C derivative was mixed in 15 mL of 2% silk solution, and all gels had the same appearance as gels created with ascorbic acid.
Gels were also cast with combinations of two vitamin C options. In each case, at least one of the vitamin C options was known to cause gelation (L-ascorbic acid or ascorbic acid-2-glucoside). All combination gels were able to gel at 1% total vitamin C additive concentration. […] Without wishing to be bound by theory, it appears there is a relationship between vitamin C concentration, silk concentration, and gelation. An increase in vitamin C at a given concentration of silk will result in a longer time to gelation or inhibit gelation. This may be due to the vitamin C molecule physically blocking interaction between silk protein fragments or cross-linking of silk protein. Modification to pH may allow additional concentrations of vitamin C and derivatives thereof to be added.
Ascorbyl tetraisopalmitate is a highly viscous, oil soluble liquid that might need the help of an emulsifier to possible dissolve in aqueous silk solution.

[2] = test system: C. albicans and A. brasiliensis; experiment: Challenge testing of preservative effect, antifungal (Method A or Method B); assay type: cell-based
Protocol: Challenge testing of various compositions of the present disclosure to determine preservative effects was performed using the following methods: (1) Method A or (2) Method B. As used herein, a “count” refers to a typical measurement for measuring microbial (i.e., bacterial and fungal) growth.
Method B: • (1) Bacteria were evaluated and were considered to meet a threshold requirement by the following parameters: (i) […] measured no less than 3 log reduction from the initial calculated count after an incubation period of 14 days (i.e., 2 weeks), and (ii) bacteria measured no increase from an incubation period starting at the 14 day count and lasting until the 28 day count (i.e., 2 week incubation period of a 4 week/1 month experiment). • (2) C. albicans was evaluated and considered to meet a threshold requirement by the following parameters: (i) […] measured no less than a 1 log reduction after a 14 day incubation period, and (ii) C. albicans measured no increase from an incubation period starting at the 14 day count and lasting until the to the 28 day count (i.e., 2 week incubation period of a 4 week/1 month experiment). • (3) A. brasiliensis was evaluated and considered to meet a threshold requirement by the following parameters: A. brasiliensis measured no increase from the initial calculated count after an incubation period of 14 days (i.e., a 2 week incubation) and an incubation period of 28 days (i.e., a 4 week/1 month incubation).
Using Method A described above, if the formulation meets the requirements defined under Method A, the microbiological risk is considered to be tolerable (the cosmetic product is protected against microbial proliferation that may present a potential risk for the user) and the cosmetic product is deemed to meet the requirements of this International Standard without additional rationale.
For example, the pump is considered a protective device for risk reduction, i.e., prevention against bacterial and/or fungal growth.

[3] = HPLC chromatograms of vitamin C degradation, aged silk films vs unstabilized vitamin C; assay type: physicochemical; details: after 1 hour at ambient conditions without chemical stabilization
Protocol: FIGS. 36A and 36B show two HPLC chromatograms from samples comprising vitamin C. […] No degradation products were visible. FIG. 59 is a table summarizing the vitamin C concentration in silk protein fragment-films (2% silk films air dried at RT) of the present disclosure. In FIG. 59 processing conditions included 100° C. extraction for 20 min, RT rinse, LiBr in 60° C. oven for 4-6 hours. FIG. 60 is a table summarizing the stability of vitamin C in chemically stabilized solutions. FIGS. 89A-89B are tables summarizing vitamin C stability in SPF gels without chemical stabilizers as compared to chemically stabilized vitamin C in competitive anti-aging skincare products. […] Without wishing to be bound by theory, it appears there is a relationship between vitamin C concentration, silk concentration, and gelation. An increase in vitamin C at a given concentration of silk will result in a longer time to gelation or inhibit gelation. This may be due to the vitamin C molecule physically blocking interaction between silk protein fragments or cross-linking of silk protein.

[4] = in USSSC formulation, concentration of 0.1%

Compound: CCCCCCCCC(CCCCCC)C(=O)OC[C@H](OC(=O)C(CCCCCC)CCCCCCCC)[C@H]1OC(=O)C(OC(=O)C(CCCCCC)CCCCCCCC)=C1OC(=O)C(CCCCCC)CCCCCCCC (stereo partly drawn) [Ascorbyl tetraisopalmitate, Ascorbyl Tetraisopalmitate]
ability to dissolve or disperse in aqueous silk solution [1]: unable to dissolve or be dispersed

Compound: O=C([O-])c1ccccc1.[Na+] [Sodium benzoate]
antifungal preservative effectiveness ([2]; in SER formulation, concentration of 0.1% and pH of 3.28): effective antifungal preservative
antifungal preservative effectiveness ([2]; in SSC formulation, concentration of 0.1% and pH of 3.7 and 4.2): effective antifungal preservative
antifungal preservative effectiveness [2, 4]: effective antifungal preservatives

Compound: C/C=C/C=C/C(=O)[O-].[K+] [potassium sorbate]
antifungal preservative effectiveness [2, 4]: effective antifungal preservatives

Compound: COc1ccc(C(=O)[O-])cc1.[Na+] [Sodium anisate]
antifungal preservative effectiveness ([2]; in SER formulation, folded in after gelation, 0.5-1.0%, pH of ˜5.2-5.9, with lemongrass or rosehip oil): effective antifungal preservative
antifungal preservative effectiveness ([2]; in SSC formulation, folded in after gelation, 0.1-1.0% and pH of 4.2-5.9): effective antifungal preservative
antifungal preservative effectiveness ([2]; in USSSC formulation, folded in after gelation, 0.5-1.0% and pH of 4.2-5.9): effective antifungal preservative

Next, values leading:

time to gel formation [1]: failed to create a gel
Compound: O=C1O[C@H]([C@@H](O)CO)C([O-])=C1OP(=O)([O-])[O-].[Na+].[Na+].[Na+] [Sodium ascorbyl phosphate from Aromantic, Sodium Ascorbyl Phosphate]

time to gel formation [1]: 28 days
Compound: O=C1O[C@H]([C@@H](O)CO)C([O-])=C1OP(=O)([O-])[O-].[Na+].[Na+].[Na+] [Sodium ascorbyl phosphate from DSM supplier]

vitamin C degradation products in HPLC chromatogram [3]: degradation products are visible
Compound: O=C1O[C@H]([C@@H](O)CO)C(O)=C1O [vitamin C, L-ascorbic acid]

time to gel formation [1]: 3 days
Compound: O=C1O[C@H]([C@@H](O)CO)C(O)=C1O[C@H]1O[C@H](CO)[C@@H](O)[C@H](O)[C@H]1O [Ascorbic acid-2-glucoside, Ascorbic Acid-2-Glucoside]
